Test results reported in patent US9210927B2, “Pesticidal compositions and processes related thereto” (Dow AgroSciences LLC, priority 2013, dated 2015).

How the values were obtained:
Assay type in all cases: in vivo
[1] = system: BAW (Spodoptera exigua); experiment: Bioassays on Beet Armyworm (BAW), 128-well diet tray assay; conditions: Spodoptera exigua, 168 h, read-out: BAW Rating
Summary of the method: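 Second-instar larvae (one to five per well) placed on artificial diet treated with 50 μg/cm^2 compound in 90:10 acetone-water, eight wells per compound. Held covered at 25° C., 14:10 light-dark for five to seven days; percent mortality averaged across wells.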

[2] = system: GPA (Myzus persicae); experiment: Bioassays on Green Peach Aphid (GPA), foliar spray on cabbage seedlings; conditions: 72 h, corrected % control (Abbott), 200 ppm spray on cabbage seedlings, three days, read-out: GPA Rating
Protocol: Bioassays on Green Peach Aphid (“GPA”) (Myzus persicae) Certain molecules disclosed in this document were tested against GPA using procedures described in the following example. In the reporting of the results, the “GPA Rating Table” was used (See Table Section). Cabbage seedlings grown in 3-inch pots, with 2-3 small (3-5 cm) true leaves, were used as test substrate. The seedlings were infested with 20-50 GPA (wingless adult and nymph stages) one day prior to chemical application. Four pots with individual seedlings were used for each treatment. Test compounds (2 mg) were dissolved in 2 mL of acetone/MeOH (1:1) solvent, forming stock solutions of 1000 ppm test compound. The stock solutions were diluted 5× with 0.025% Tween 20 in H2O to obtain the solution at 200 ppm test compound. A hand-held aspirator-type sprayer was used for spraying a solution to both sides of […] leaves until runoff. Reference plants (solvent check) were sprayed with the diluent only containing 20% by volume of acetone/MeOH (1:1) solvent. Treated plants were held in a holding room for three days at approximately 25° C. and ambient relative humidity (RH) prior to grading. Evaluation was conducted by counting the number of live aphids per plant under a microscope. Percent Control was measured by using Abbott's correction formula (W. S. Abbott, “A Method of Computing the Effectiveness of an Insecticide” J. Econ. Entomol. 18 (1925), pp. 265-267) as follows. Corrected % Control=100*(X−Y)/X • where • X=No. of live aphids on solvent check plants and • Y=No. of live aphids on treated plants The results are indicated in the table entitled “Table 3: Assay Results” (See Table Section).

[3] = system: CEW (Helicoverpa zea); experiment: Bioassays on Corn Earworm (CEW), 128-well diet tray assay; conditions: Helicoverpa zea, 168 h; percent mortality, second instar larvae, 50 μg/cm^2 on artificial diet, five to seven days, 25° C.; read-out: CEW Rating
Summary of the method: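 Second-instar larvae (one to five per well) placed on artificial diet treated with 50 μg/cm^2 compound in 90:10 acetone-water and dried, eight wells per compound. Held 25 °C, 14:10 light-dark, five to seven days; percent mortality scored per well and averaged.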

| Compound | pest or weed control at 50 µg/cm2 [1] | pest or weed control at 200 ppm [2] | pest or weed control at 50 µg/cm2 [3] |
| --- | --- | --- | --- |
| Cc1cc(/C=C/C(c2cc(Cl)c(Cl)c(Cl)c2)C(F)(F)F)ccc1C(=O)NC1CSC1 (stereo not drawn) [AC23] | 50 to 100% | 0 to 80% | 50 to 100% |
| Cc1cc(/C=C/C(c2cc(Cl)c(Cl)c(Cl)c2)C(F)(F)F)ccc1C(=O)NCc1cnc(Cl)s1 (stereo not drawn) [AC26] | 50 to 100% | 0 to 80% | 50 to 100% |
| Cc1cc(/C=C/C(c2cc(Cl)c(Cl)c(Cl)c2)C(F)(F)F)ccc1C(=O)NC(C)(C)c1ccccn1 (stereo not drawn) [AC27] | 50 to 100% | 0 to 80% | 50 to 100% |
| O=C(NCc1ccc(Cl)nc1)c1ccc(/C=C/C(c2cc(Cl)c(Cl)c(Cl)c2)C(F)(F)F)cc1Cl (stereo not drawn) [AC28] | 50 to 100% | 0 to 80% | 50 to 100% |
| O=C(NC1CSC1)c1ccc(/C=C/C(c2cc(Cl)c(Cl)c(Cl)c2)C(F)(F)F)cc1Cl (stereo not drawn) [AC29] | 50 to 100% | 0 to 80% | 50 to 100% |
| O=C(NC1CS(=O)(=O)C1)c1ccc(/C=C/C(c2cc(Cl)c(Cl)c(Cl)c2)C(F)(F)F)cc1Cl (stereo not drawn) [AC30] | 50 to 100% | 0 to 80% | 50 to 100% |
| O=C(NCc1ccc(Cl)nc1)c1ccc(/C=C/C(c2cc(Cl)c(Cl)c(Cl)c2)C(F)(F)F)cc1Br (stereo not drawn) [AC31] | 50 to 100% | 0 to 80% | 50 to 100% |
| O=C(NC1CSC1)c1ccc(/C=C/C(c2cc(Cl)c(Cl)c(Cl)c2)C(F)(F)F)cc1Br (stereo not drawn) [AC32] | 50 to 100% | 0 to 80% | 50 to 100% |
| O=C(NC1CS(=O)(=O)C1)c1ccc(/C=C/C(c2cc(Cl)c(Cl)c(Cl)c2)C(F)(F)F)cc1Br (stereo not drawn) [AC33] | 50 to 100% | 0 to 80% | 50 to 100% |
| O=C(NC1CSC1)c1ccc(/C=C/C(c2cc(Cl)c(Cl)c(Cl)c2)C(F)(F)F)cc1C(F)(F)F (stereo not drawn) [AC34] | 50 to 100% | 0 to 80% | 50 to 100% |
| O=C(NCc1ccc(Cl)nc1)c1ccc(/C=C/C(c2cc(Cl)c(Cl)c(Cl)c2)C(F)(F)F)cc1C(F)(F)F (stereo not drawn) [AC36] | 50 to 100% | 0 to 80% | 50 to 100% |
| Cc1cc(/C=C/C(c2ccc(Cl)c(Cl)c2)C(F)(F)F)ccc1C(=O)NCc1ccc(Cl)nc1 (stereo not drawn) [AC37] | 50 to 100% | 0 to 80% | 50 to 100% |
| Cc1cc(/C=C/C(c2cc(Cl)cc(Cl)c2)C(F)(F)F)ccc1C(=O)NCc1cnccn1 (stereo not drawn) [AC43] | 50 to 100% | 0 to 80% | 50 to 100% |
| Cc1cc(/C=C/C(c2cc(Cl)cc(Cl)c2)C(F)(F)F)ccc1C(=O)NCc1ccc(Cl)cc1 (stereo not drawn) [AC48] | 50 to 100% | 0 to 80% | 50 to 100% |
| O=C(NCc1ccc(Cl)nc1)c1ccc(/C=C/C(c2cc(Cl)cc(Cl)c2)C(F)(F)F)cc1F (stereo not drawn) [AC49] | 50 to 100% | 0 to 80% | 50 to 100% |
| Cc1cc(/C=C/C(c2cc(Cl)cc(Cl)c2)C(F)(F)F)ccc1C(=O)NCC(=O)N(C)CC(F)(F)F (stereo not drawn) [AC51] | 50 to 100% | 0 to 80% | 50 to 100% |
